Experiment [1] deals with Escherichia coli EC-1: VOGEL, mouse virulent. The experiment can be described thus: MIC determination (CLSI), EC-1. It counts as cell-based. To be noted: read-out: EC-1 MIC. The method, then: (§1) B) MIC determinations: The in vitro antibacterial activity of parent compounds of those described in the Examples was evaluated by minimum inhibitory concentration (MIC) testing according to Clinical and Laboratory Standards Institute (CLSI). See: Clinical and Laboratory Standards Institute. Methods for Dilution Antimicrobial Susceptibility Tests for Bacteria that Grow Aerobically; Approved Standard-Eighth Edition. CLSI document M7-A8 [ISBN 1-56238-689-1]. Clinical and Laboratory Standards Institute, 940 West Valley Road, Suite 1400, Wayne, Pa. 19087-1898 USA, 2006; also Clinical and Laboratory Standards Institute. Performance Standards for Antimicrobial Susceptibility Testing; Twentieth Informational Supplement. CLSI document M100-S20 [ISBN1-56238-716-2]. Clinical and Laboratory Standards Institute.
(§2) The MIC determination is a standard laboratory method for evaluating the antibacterial activity of a compound. The MIC represents the lowest drug concentration that inhibits visible growth of bacteria following overnight incubation. […] Typically, the drug concentration range is broken down into 2-fold increments (e.g. 0.06 μg/mL, 0.12 μg/mL. 0.25 μg/mL, 0.50 μg/mL, 1.0 μg/mL, etc.) and the various drug concentrations are all individually incubated overnight with approximately the same number of bacteria. The MIC is then determined by visually inspecting the drug effect at each concentration, and identifying the lowest drug concentration that has inhibited bacterial growth as compared to the drug free control. Typically, bacteria continue to grow at drug concentrations lower than the MIC and don't grow at concentrations at and above the MIC.
(§3) The MIC values described in Table 2 below were derived from assays wherein each test compound was evaluated in duplicate. In cases where the duplicate values varied by 0-2-fold, the lower of the two values was reported below. Generally speaking, if the duplicate values varied by more than 2-fold, the assay was considered non-valid and was repeated until the variation between duplicate runs was <2-fold. In line with the CLSI guidelines referred to above, both control organisms and reference compounds were utilized in each MIC assay to provide proper quality control. MIC values generated with these control organisms and reference compounds were required to fall within a defined range for the assay to be considered valid and be included herein. Those skilled in the art will recognize that MIC values can and do vary from experiment to experiment. […] While a single MIC is reported for each compound and each microorganism, the reader should not conclude that each compound was only tested once. Several of the compounds were subjected to multiple tests. The data reported in Table 2 is reflective of the compounds relative activity and different MICs may have been generated on these occasions in line with the guidelines described above.
(§4) The following bacterial strains were used in these MIC determinations:
3) Escherichia coli EC-1: VOGEL, mouse virulent labeled as EC-1 in Table 2;

For experiment [2], the system named is Pseudomonas aeruginosa UI-18, wild-type (PA-7). The experiment can be described thus: MIC determination (CLSI), PA-7. It is filed as cell-based. The conditions noted are these: lower of duplicate values. The method, then:
as §1, §2, §3, §4
1) Pseudomonas aeruginosa UI-18: Wild-type, labeled as PA-7 in Table 2;

In experiment [3] the target is T1, Pseudomonas aeruginosa LpxC enzyme (Pseudomonas aeruginosa, UniProt P47205).
T1 construct: made in house; host or cells: E. coli
T1 sequence (P47205 whole entry): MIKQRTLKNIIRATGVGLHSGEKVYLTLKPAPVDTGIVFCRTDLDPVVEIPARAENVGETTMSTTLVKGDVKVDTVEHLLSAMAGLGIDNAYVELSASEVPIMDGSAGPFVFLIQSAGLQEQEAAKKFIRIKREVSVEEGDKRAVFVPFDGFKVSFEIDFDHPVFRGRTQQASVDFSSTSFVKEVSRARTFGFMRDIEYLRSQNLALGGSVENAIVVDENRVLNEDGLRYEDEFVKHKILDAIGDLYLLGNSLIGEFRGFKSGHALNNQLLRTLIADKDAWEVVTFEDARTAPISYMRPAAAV
The experiment can be described thus: IC50 assay, LpxC enzyme from P. aeruginosa (PA LpxC enzyme IC50). To be noted: P. aeruginosa LpxC 0.1 nM, 25° C., 1 hour, pH 8.0. It counts as biochemical. How it is done:
In order to assess the compounds biological activity, selected in vitro assays were conducted on selected compounds. One of the assays measured the compounds ability to disrupt the synthesis of lipopolysaccharide, LPS, which is a component of the outer membrane of Gram-negative bacteria. Disruption of this synthesis is lethal to the bacteria. The assay determined the compound's ability to inhibit LpxC, which is the first enzyme in the biosynthetic pathway for LPS (measured as IC50). Additionally, MICs (minimal inhibitory concentrations) were determined for several bacteria. The specific protocols are described below:
A) IC50 Assay, LpxC Enzyme from P. aeruginosa (Labeled as PA LpxC Enzyme IC50):
At the end of 1 hour, 5 ul of 1 N HCl was added to stop the enzyme reaction, the plates were centrifuged, and then processed with the BioTrove Rapidfire HTMS Mass Spectrometry System. A no-enzyme control was used in calculating the IC50 values from the percent conversion values.

Experiment [4] concerns Acinetobacter baumannii/haemolyticus, multidrug-resistant clinical isolate (AB-3167). The experiment in a line: MIC determination (CLSI), AB-3167. It counts as cell-based. The conditions noted are these: lower of duplicate values. The method, then: as §1, §2, §3, §4
2) Acinetobacter baumannii/haemolyticus: Multidrug-resistant clinical isolate labeled as AB-3167 in Table 2;

Structures are written as SMILES. Values after ≈ are worked out from the molar mass of the structure shown.

Consider `COc1ccc(-c2ccn(CC[C@](C)(C(=O)NO)S(C)(=O)=O)c(=O)c2)c(F)c1F` [(2R)-4-[4-(2,3-difluoro-4-methoxyphenyl)-2-oxopyridin-1(2H)-yl]-N-hydroxy-2-methyl-2-(methylsulfonyl)butanamide], for which the MIC (usually the lowest concentration found to suppress growth) is 0.015 µg/mL (≈ 0.0348 µM) in experiment [1], 1 µg/mL (≈ 2.32 µM) in experiment [2] and > 64 µg/mL in experiment [4]. Besides, in experiment [3], the midpoint of inhibition, the IC50, lay at 166 pM.

Consider `C[C@@](CCn1ccc(-c2ccc(-c3nccs3)cc2)cc1=O)(C(=O)NO)S(C)(=O)=O` [(2R)-N-hydroxy-2-methyl-2-(methylsulfonyl)-4-{2-oxo-4-[4-(1,3-thiazol-2-yl)phenyl]pyridin-1(2H)-yl}butanamide], for which the figures for the MIC in experiment [1], in experiment [2] and in experiment [4] were 0.06 µg/mL (≈ 0.134 µM), 0.5 µg/mL (≈ 1.12 µM) and > 64 µg/mL, respectively. Further, it took 176 pM to reach half-maximal inhibition in experiment [3] (IC50).

Consider `C[C@@](CCn1cnc(-c2ccc(-n3nccn3)cc2)cc1=O)(C(=O)NO)S(C)(=O)=O` [(2R)-N-hydroxy-2-methyl-2-(methylsulfonyl)-4-{6-oxo-4-[4-(2H-1,2,3-triazol-2-yl)phenyl]pyrimidin-1(6H)-yl}butanamide], for which the MIC was 0.06 µg/mL (≈ 0.139 µM) in experiment [1], 0.5 µg/mL (≈ 1.16 µM) in experiment [2] and > 64 µg/mL in experiment [4].

For `COc1cnn(-c2ccc(-c3ccn(CC[C@](C)(C(=O)NO)S(C)(=O)=O)c(=O)c3)cc2)n1` [(2R)-N-hydroxy-4-{4-[4-(4-methoxy-2H-1,2,3-triazol-2-yl)phenyl]-2-oxopyridin-1(2H)-yl}-2-methyl-2-(methylsulfonyl)butanamide], the MIC is 0.03 µg/mL (≈ 0.065 µM) in experiment [1], 0.5 µg/mL (≈ 1.08 µM) in experiment [2] and > 64 µg/mL in experiment [4]. Further, the IC50 (commonly the concentration that gives 50% inhibition) in experiment [3] worked out at 125 pM.

As to `C[C@@](CCn1ccc(-c2ccc(-n3nccn3)cc2)cc1=O)(C(=O)NO)S(C)(=O)=O` [(R)-4-(4-(4-(2H-1,2,3-Triazol-2-yl)phenyl)-2-oxopyridin-1(2H)-yl)-N-hydroxy-2-methyl-2-(methylsulfonyl)butanamide], the values for the minimum inhibitory concentration (MIC) in experiment [1], in experiment [2] and in experiment [4] were 0.06 µg/mL (≈ 0.139 µM), 0.5 µg/mL (≈ 1.16 µM) and > 64 µg/mL, respectively.

Values taken from patent US20210017206A1, “PYRIDINONE AND PYRIMIDINONE PHOSPHATES AND BORONATES USEFUL AS ANTIBACTERIAL AGENTS” (Pfizer Inc., priority 2018, published 2021).
